{
  "source": "patent US9463213B2",
  "about": "“Use of degarelix in the treatment of endometriosis and related diseases” (priority 2012, dated 2016)",
  "key": {"[1]": {"test_system": "women with recurrent endometriosis after surgery", "assay": "Example 1: clinical comparison of single-dose degarelix with monthly leuprolide acetate in recurrent endometriosis", "assay_type": "in vivo", "conditions": "for Disappearance of pain: degarelix acetate 80 mg single s.c. injection vs leuprolide acetate 3.75 mg s.c. monthly, 15 patients per group; for Disappearance of symptoms at the end of treatment / Recurrence six months after the end of treatment / CA-125 after 2 months / CA-125 at the end of treatment: degarelix acetate 80 mg single s.c. vs leuprolide acetate 3.75 mg s.c. monthly; for CA-125 after 2 months / CA-125 at the end of treatment: plasma", "protocol": "In this experiment the use of degarelix was studied, administered in a dose of 80 mg in a single infusion, with an effect which lasted for at least 4 months (period of amenorrhea and hypoestrogenism), comparing this with the effect of treatment with leuprolide acetate GnRH-agonist administered in a dose of 3.75 mg per month for at least 6 months in women with recurrent endometriosis after surgery and post-surgery treatment with estro-progestins. 30 women divided into two groups of 15 patients each, with recurrent endometriosis after previous surgery for endometriotic cysts, in whom new ovarian cysts, pelvic pain and a rise in plasma CA125 values occurred, were included in the study. One group of patients was treated with 80 mg degarelix acetate in a single subcutaneous injection (Firmagon 80 mg, company Ferring) on the first day of the menstrual cycle, while the other group was treated with leuprolide acetate (Enantone 3.75, Takeda) in a dose of 3.75 mg subcutaneously every month for four months. Both the groups were monitored for FSH, LH, estradiol, androstenedione, dehydroandrostenedione (DEA) and CA125, with plasma doses every fifteen days starting from the day following administration of the drug. Pelvic pain levels experienced by the patients during treatment and during the six months following suspension of the treatment were also evaluated using a “Visual Analogue Scale” (VAS) in which the patient expressed the level of pain experienced on a 10 cm scale."}, "[2]": {"test_system": "patients with severe endometriosis", "conditions": "80 mg monthly for three months; cited from earlier work"}, "[3]": {"test_system": "healthy women volunteers", "conditions": "injection of 2.5 mg; cited from earlier work"}, "[4]": {"test_system": "patients suffering from endometriosis with bilateral ovarian cysts", "assay": "Example 2: degarelix before assisted reproduction in patients with bilateral endometriotic ovarian cysts", "assay_type": "in vivo", "protocol": "In this experiment, 12 patients suffering from endometriosis with the presence of bilateral ovarian cysts who wished to receive a cycle of assisted reproduction underwent, prior to undergoing controlled ovarian hyperstimulation, treatment with 80 mg degarelix acetate in a single administration 4 months before the assisted reproduction cycle, in order to evaluate the efficacy of this treatment on the reduction and/or disappearance of the ovarian cysts without performing surgery. 12 patients with bilateral endometriotic cysts (cysts larger than 3 cm) and high plasma CA125 (over 60 IU/ml) were selected. 80 mg degarelix acetate (Firmagon 80 mg) was injected into the patients on the first day of the cycle and the patients were then monitored for FSH, LH and estradiol values every 20 days, with an echography check to evaluate the dimensions of the cysts."}, "[5]": {"conditions": "80 mg single dose vs leuprolide acetate, P<0.01"}},
  "data": [
    {"compound": "CCNC(=O)[C@@H]1CCCN1C(=O)[C@H](CCCNC(=N)N)NC(=O)[C@H](CC(C)C)NC(=O)[C@@H](CC(C)C)NC(=O)[C@H](Cc1ccc(O)cc1)NC(=O)[C@H](CO)NC(=O)[C@H](Cc1c[nH]c2ccccc12)NC(=O)[C@H](Cc1c[nH]cn1)NC(=O)[C@@H]1CCC(=O)N1", "note": "[Leuprolide acetate, leuprolide acetate]", "values": [
      {"measurement": "Disappearance of pain", "setting": "[1]", "value": "3.8 ± 0.8"},
      {"measurement": "Disappearance of symptoms at the end of treatment", "setting": "[1]", "value": 60.0, "unit": "%"},
      {"measurement": "Recurrence six months after the end of treatment", "setting": "[1]", "value": 33.3, "unit": "%"},
      {"measurement": "CA-125 after 2 months", "setting": "[1]", "value": "52.6 ± 31.5"},
      {"measurement": "CA-125 at the end of treatment", "setting": "[1]", "value": "34.0 ± 12.7"}
    ]},
    {"compound": "degarelix acetate", "values": [
      {"measurement": "Effect on pain and endometriosis recurrence", "setting": "[2]", "value": "reduction of pain and endometriosis recurrence"},
      {"measurement": "Effect on LH and FSH release", "setting": "[3]", "value": "immediate suppression of LH and FSH release"},
      {"measurement": "Time required for LH and FSH to return to base levels", "setting": "[3]", "value": "approximately 7 days"},
      {"measurement": "Duration of effect (period of amenorrhea and hypoestrogenism)", "setting": "[1]; 80 mg in a single infusion", "value": "at least 4 months"},
      {"measurement": "Control of painful symptoms (VAS) compared with GnRH agonist (FIG. 5)", "setting": "[1]; 80 mg single dose vs leuprolide acetate", "value": "better control of painful symptoms"},
      {"measurement": "Estradiol and androgen levels compared with GnRH agonist (FIGS. 2-4)", "setting": "[1]; [5]", "value": "lower levels of estradiol"},
      {"measurement": "Suppression of LH and FSH compared with GnRH agonist (FIG. 1)", "setting": "[1]; [5]", "value": "More rapid and stable suppression of LH and FSH"},
      {"measurement": "Disappearance of pain", "setting": "[1]", "value": "1.4 ± 0.3"},
      {"measurement": "Disappearance of symptoms at the end of treatment", "setting": "[1]", "value": 93.3, "unit": "%"},
      {"measurement": "Recurrence six months after the end of treatment", "setting": "[1]", "value": 6.6, "unit": "%"},
      {"measurement": "CA-125 after 2 months", "setting": "[1]", "value": "32.4 ± 21.4"},
      {"measurement": "CA-125 at the end of treatment", "setting": "[1]", "value": "12.6 ± 10.1"},
      {"measurement": "Duration of stable suppression of FSH, LH, estradiol and androgen levels", "setting": "[1]; single administration of 80 mg", "value": 4, "unit": "months"},
      {"measurement": "Volume of the endometriotic cysts", "setting": "[4]; 80 mg single administration, 3 months after treatment, echography", "value": "decreased significantly"},
      {"measurement": "Levels of FSH, LH and estradiol 3 months after treatment (FIG. 6)", "setting": "[4]; 80 mg single administration, 12 patients", "value": "low levels"},
      {"measurement": "Patients with complete disappearance of endometriotic cysts", "setting": "[4]; 80 mg single administration, of 12 patients", "value": "at least 4 patients"},
      {"measurement": "Pregnancy achieved", "setting": "[4]; after 80 mg single administration and assisted reproduction cycle, of 12 patients", "value": 5, "unit": "cases"},
      {"measurement": "Recurrence of endometriotic cysts during ovarian stimulation with oocyte sampling", "setting": "[4]; after 80 mg single administration, all patients", "value": "without showing any recurrence of endometriotic cysts"}
    ]}
  ]
}
